# Experimental data: US20110136801A1, “Novel Compounds” (Dainippon Sumitomo Pharma Co. Ltd., priority 2009, published 2011)
# Target: T1, human TLR7 (Homo sapiens, UniProt Q9NYK1)
# T1 construct: expressed in transfected cells; host or cells: HEK293 cell line stably expressing the pNiFty2-SEAP reporter plasmid; TLR7 in pUNO vector, blasticidin selection
# T1 sequence (Q9NYK1 27-1049): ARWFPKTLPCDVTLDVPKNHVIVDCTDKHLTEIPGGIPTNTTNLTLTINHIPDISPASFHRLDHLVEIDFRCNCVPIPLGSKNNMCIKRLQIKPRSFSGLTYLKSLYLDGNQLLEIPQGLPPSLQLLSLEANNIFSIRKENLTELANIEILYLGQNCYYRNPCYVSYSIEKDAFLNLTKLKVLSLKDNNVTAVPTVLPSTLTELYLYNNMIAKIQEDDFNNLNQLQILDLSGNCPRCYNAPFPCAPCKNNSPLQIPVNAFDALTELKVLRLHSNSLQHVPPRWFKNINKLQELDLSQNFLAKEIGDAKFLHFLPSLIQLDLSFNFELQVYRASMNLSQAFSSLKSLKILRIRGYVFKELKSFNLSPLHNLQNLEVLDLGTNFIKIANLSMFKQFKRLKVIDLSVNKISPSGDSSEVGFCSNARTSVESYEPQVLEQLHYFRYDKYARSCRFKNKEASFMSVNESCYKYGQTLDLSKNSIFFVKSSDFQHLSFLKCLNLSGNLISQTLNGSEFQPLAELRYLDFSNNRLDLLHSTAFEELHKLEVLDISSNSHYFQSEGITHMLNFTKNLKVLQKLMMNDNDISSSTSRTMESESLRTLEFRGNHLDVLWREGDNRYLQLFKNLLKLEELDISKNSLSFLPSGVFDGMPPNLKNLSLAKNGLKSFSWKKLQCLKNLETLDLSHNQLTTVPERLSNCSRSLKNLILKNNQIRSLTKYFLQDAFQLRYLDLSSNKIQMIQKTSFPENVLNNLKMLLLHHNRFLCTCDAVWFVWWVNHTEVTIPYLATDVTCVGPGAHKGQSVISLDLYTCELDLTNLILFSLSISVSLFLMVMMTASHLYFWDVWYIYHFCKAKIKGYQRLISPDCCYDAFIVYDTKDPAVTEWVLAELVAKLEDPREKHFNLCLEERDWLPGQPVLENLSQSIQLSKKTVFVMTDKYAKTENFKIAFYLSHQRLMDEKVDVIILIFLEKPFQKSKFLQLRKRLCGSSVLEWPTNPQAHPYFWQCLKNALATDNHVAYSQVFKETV
# Experiment: Human TLR7 Assay (SEAP reporter in HEK293 cells);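 also: Read-out is secreted alkaline phosphatase made under an NFkB/ELAM-1 composite promoter, reporting TLR7-triggered NFkB activation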
# Assay type: cell-based
# Conditions: HEK293 cell line expressing human TLR7 and pNiFty2-SEAP reporter, overnight incubation at 37° C., 0.1% DMSO; read-out: hTLR7 EC50
# Source text: The most common variant sequence of human TLR7 (represented by the EMBL sequence AF240467) was cloned into the mammalian cell expression vector pUNO and transfected into a HEK293 cell line already stably expressing the pNiFty2-SEAP reporter plasmid; integration of the reporter gene was maintained by selection with the antibiotic zeocin. Transfectants with stable TLR7 expression were selected using the antibiotic blasticidin. In this reporter cell-line, expression of secreted alkaline phosphatase (SEAP) is controlled by an NFkB/ELAM-1 composite promoter comprising five NFkB sites combined with the proximal ELAM-1 promoter. TLR signaling leads to the translocation of NFkB and activation of the promoter results in expression of the SEAP gene. TLR7-specific activation was assessed by determining the level of SEAP produced following overnight incubation of the cells at 37° C. with the standard compound in the presence of 0.1% (v/v) dimethylsulfoxide (DMSO). Concentration dependent induction of SEAP production by compounds was expressed as the concentration of compound which produced half of the maximal level of SEAP induction for that compound (EC50).
row,Structure (SMILES),EC50
1,"CCN(CC)CC(=O)N(CCCn1c(CCOC)nc2c(N)nc3ccccc3c21)Cc1ccccc1OCC(=O)OC [Example 40, Methyl 2-{2-[(N-{3-[4-amino-2-(2-methoxyethyl)-1H-imidazo[4,5-c]quinolin-1-yl]propyl}-2-(diethylamino)acetamido)methyl]phenoxy}acetate]",0.243 µM
2,"CCOC(=O)COc1cccc(CN(CCCCn2c(CCOC)nc3c(N)nc4ccccc4c32)C(=O)NCCCN2CCCCC2)c1 [Example 128, Ethyl 2-{3-[(1-{4-[4-amino-2-(2-methoxyethyl)-1H-imidazo[4,5-c]quinolin-1-yl]butyl}-3-{3-(piperidin-1-yl)propyl}ureido)methyl]phenoxy}acetate]",0.13 µM
3,"CCN(CC)CC(=O)N(CCCn1c(CCOC)nc2c(N)nc3ccccc3c21)Cc1ccc(F)c(OCC(=O)OC)c1 [Example 120, Methyl 2-{5-[(N-{3-[4-amino-2-(2-methoxyethyl)-1H-imidazo[4,5-c]quinolin-1-yl]propyl}-2-{diethylamino}acetamido)methyl]-2-fluorophenoxy}acetate]",0.278 µM
4,"CCOC(=O)COc1cc(CN(CCCn2c(CCOC)nc3c(N)nc4ccccc4c32)C(=O)CN(CC)CC)ccc1F [Example 119, Ethyl 2-{5-[(N-{3-[4-amino-2-(2-methoxyethyl)-1H-imidazo[4,5-c]quinolin-1-yl]propyl}-2-{diethylamino}acetamido)methyl]-2-fluorophenoxy}acetate]",0.0932 µM
5,"COCCc1nc2c(N)nc3ccccc3c2n1CCCN(Cc1cccc(OC(C)(C)C(=O)OC)c1)C(=O)CN(C)C [Example 149, Methyl 2-{3-[(N-{3-[4-amino-2-(2-methoxyethyl)-1H-imidazo[4,5-c]quinolin-1-yl]propyl}-2-{dimethylamino}acetamido)methyl]phenoxy}-2-methylpropanoate]",0.181 µM
6,"CCOC(=O)COc1cccc(CN(CCCCn2c(CCOC)nc3c(N)nc4ccccc4c32)C(=O)NCCN2CCCCC2)c1 [Example 126, Ethyl 2-{3-[(1-{4-[4-amino-2-(2-methoxyethyl)-1H-imidazo[4,5-c]quinolin-1-yl]butyl}-3-{2-(piperidin-1-yl)ethyl}ureido)methyl]phenoxy}acetate]",0.047 µM
7,"CCOCc1nc2c(N)nc3ccccc3c2n1CCCN(Cc1cccc(OC(C)(C)C(=O)OCC)c1)C(=O)CN(CC)CC [Example 162, Ethyl 2-{3-[(N-{3-[4-amino-2-(ethoxymethyl)-1H-imidazo[4,5-c]quinolin-1-yl]propyl}-2-{diethylamino}acetamido)methyl]phenoxy}-2-methylpropanoate]",0.0964 µM
8,"CCN(CC)CC(=O)N(CCCn1c(CCOC)nc2c(N)nc3ccccc3c21)Cc1cccc(OCC(=O)OC(C)C)c1C [Example 147, Isopropyl 2-{3-[(N-{3-[4-amino-2-(2-methoxyethyl)-1H-imidazo[4,5-c]quinolin-1-yl]propyl}-2-{diethylamino}acetamido)methyl]-2-methylphenoxy}acetate]",0.183 µM
9,"CCOC(=O)C(C)(C)Oc1cccc(CN(CCCCn2c(CCOC)nc3c(N)nc4ccccc4c32)CCN(C)C)c1 [Example 134, Ethyl 2-{3-[({4-[4-amino-2-(2-methoxyethyl)-1H-imidazo[4,5-c]quinolin-1-yl]butyl}{2-(dimethylamino)ethyl}amino)methyl]phenoxy}-2-methylpropanoate]",0.0209 µM
10,"COCCc1nc2c(N)nc3ccccc3c2n1CCCN(Cc1cccc(OCC(=O)OC)c1)C(=O)CN1CCCCC1 [Example 19, Methyl (3-{[[3-(4-amino-2-(2-methoxyethyl)-1H-imidazo[4,5-c]quinolin-1-yl)propyl](piperidin-1-ylacetyl)amino]methyl}phenoxy)acetate]",0.178 µM
11,"CCCCc1nc2c(N)nc3ccccc3c2n1CCCN(Cc1ccc(OCC(=O)OC)cc1)C(=O)CN(C)C [Example 5, Methyl (4-{[[3-(4-amino-2-butyl-1H-imidazo[4,5-c]quinolin-1-yl)propyl](N,N-dimethylglycyl)amino]methyl}phenoxy)acetate]",0.247 µM
12,"CCOCc1nc2c(N)nc3ccccc3c2n1CCCN(Cc1cccc(OCC(=O)OC(C)C)c1F)C(=O)CN(C)C [Example 167, Isopropyl 2-{3-[(N-{3-[4-amino-2-(ethoxymethyl)-1H-imidazo[4,5-c]quinolin-1-yl]propyl}-2-{dimethylamino}acetamido)methyl]-2-fluorophenoxy}acetate]",0.716 µM
13,"CCOC(=O)COc1cccc(CN(CCCn2c(CCOC)nc3c(N)nc4ccccc4c32)C(=O)CN(C)CC)c1F [Example 97, Ethyl 2-{3-[(N-{3-[4-amino-2-(2-methoxyethyl)-1H-imidazo[4,5-c]quinolin-1-yl]propyl}-2-{ethyl(methyl)amino}acetamido)methyl]-2-fluorophenoxy}acetate]",0.256 µM

# The next lines start with the values.
row,EC50,Structure (SMILES)
1,0.228 µM,"CCN(C)CC(=O)N(CCCn1c(CCOC)nc2c(N)nc3ccccc3c21)Cc1cccc(OCC(=O)OC(C)C)c1F [Example 98, Isopropyl 2-{3-[(N-{3-[4-amino-2-(2-methoxyethyl)-1H-imidazo[4,5-c]quinolin-1-yl]propyl}-2-{ethyl(methyl)amino}acetamido)methyl]-2-fluorophenoxy}acetate]"
2,0.212 µM,"CCN(CC)CC(=O)N(CCCn1c(CCOC)nc2c(N)nc3ccccc3c21)Cc1ccc(OC)c(OCC(=O)OC)c1 [Example 63, Methyl 2-{5-[(N-{3-[4-amino-2-(2-methoxyethyl)-1H-imidazo[4,5-c]quinolin-1-yl]propyl}-2-{diethylamino}acetamido)methyl]-2-methoxyphenoxy}acetate]"
3,0.0845 µM,"CCN(CC)CC(=O)N(CCCn1c(CCOC)nc2c(N)nc3ccccc3c21)Cc1ccc(OCC(=O)OC)cc1 [Example 36, Methyl 2-{4-[(N-{3-[4-amino-2-(2-methoxyethyl)-1H-imidazo[4,5-c]quinolin-1-yl]propyl}-2-(diethylamino)acetamido)methyl]phenoxy}acetate]"
4,0.082 µM,"CCN(C)CC(=O)N(CCCn1c(CCOC)nc2c(N)nc3ccccc3c21)Cc1cccc(OC(C)(C)C(=O)OC)c1 [Example 151, Methyl 2-{3-[(N-{3-[4-amino-2-(2-methoxyethyl)-1H-imidazo[4,5-c]quinolin-1-yl]propyl}-2-{ethyl(methyl)amino}acetamido)methyl]phenoxy}-2-methylpropanoate]"
5,0.0273 µM,"CCOC(=O)COc1cc(CN(CCCn2c(CCOC)nc3c(N)nc4ccccc4c32)C(=O)CN(CC)CC)ccc1C [Example 66, Ethyl 2-{5-[(N-{3-[4-amino-2-(2-methoxyethyl)-1H-imidazo[4,5-c]quinolin-1-yl]propyl}-2-{diethylamino}acetamido)methyl]-2-methylphenoxy}acetate]"
6,0.0774 µM,"CCN(CC)CC(=O)N(CCCn1c(CCOC)nc2c(N)nc3ccccc3c21)Cc1ccc(F)c(OCC(=O)OC(C)C)c1 [Example 118, Isopropyl 2-{5-[(N-{3-[4-amino-2-(2-methoxyethyl)-1H-imidazo[4,5-c]quinolin-1-yl]propyl}-2-{diethylamino}acetamido)methyl]-2-fluorophenoxy}acetate]"
7,0.023 µM,"CCOC(=O)C(CC)Oc1cccc(CN(CCCn2c(CCOC)nc3c(N)nc4ccccc4c32)C(=O)CN(CC)CC)c1 (centres unmarked) [Example 71, Ethyl 2-{3-[(N-{3-[4-amino-2-(2-methoxyethyl)-1H-imidazo[4,5-c]quinolin-1-yl]propyl}-2-{diethylamino}acetamido)methyl]phenoxy}butanoate]"
8,> 10 µM,"CCOC(=O)C(C)(C)Oc1cccc(CN(CCn2c(CCOC)nc3c(N)nc4ccccc4c32)C(=O)CN(CC)CC)c1 [Example 106, Ethyl 2-{3-[(N-{2-[4-amino-2-(2-methoxyethyl)-1H-imidazo[4,5-c]quinolin-1-yl]ethyl}-2-{diethylamino}acetamido)methyl]phenoxy}-2-methylpropanoate]"
9,0.0792 µM,"COCCc1nc2c(N)nc3ccccc3c2n1CCCCNC(=O)N(CCN1CCCCC1)Cc1ccc(F)c(OCC(=O)OC)c1 [Example 144, Methyl 2-{5-[(3-{4-[4-amino-2-(2-methoxyethyl)-1H-imidazo[4,5-c]quinolin-1-yl]butyl}-1-{2-(piperidin-1-yl)ethyl}ureido)methyl]-2-fluorophenoxy}acetate]"
10,> 10 µM,"CCN(CC)CC(=O)N(CCn1c(CCOC)nc2c(N)nc3ccccc3c21)Cc1cccc(OC(C)(C)C(=O)OC)c1 [Example 107, Methyl 2-{3-[(N-{2-[4-amino-2-(2-methoxyethyl)-1H-imidazo[4,5-c]quinolin-1-yl]ethyl}-2-{diethylamino}acetamido)methyl]phenoxy}-2-methylpropanoate]"
